Data published in PMC10302633 (Marine Drugs, 2023).

Experiments:
[1] = target: human α7 nAChRs (Homo sapiens, UniProt P36544); assay: cell-based
[2] = target: human α9α10 nAChRs (Homo sapiens, UniProt Q9GZZ6+Q9UGM1); format: cell-based
[3] = target: rat α7 nAChRs (Rattus norvegicus, UniProt Q05941); assay: cell-based; format: cell-based
[4] = target: rat α9α10 nAChRs (Rattus norvegicus, UniProt P43144+Q9JLB5); format: cell-based
Chain of rat α9α10 nAChRs (P43144 26-479 limits assumed): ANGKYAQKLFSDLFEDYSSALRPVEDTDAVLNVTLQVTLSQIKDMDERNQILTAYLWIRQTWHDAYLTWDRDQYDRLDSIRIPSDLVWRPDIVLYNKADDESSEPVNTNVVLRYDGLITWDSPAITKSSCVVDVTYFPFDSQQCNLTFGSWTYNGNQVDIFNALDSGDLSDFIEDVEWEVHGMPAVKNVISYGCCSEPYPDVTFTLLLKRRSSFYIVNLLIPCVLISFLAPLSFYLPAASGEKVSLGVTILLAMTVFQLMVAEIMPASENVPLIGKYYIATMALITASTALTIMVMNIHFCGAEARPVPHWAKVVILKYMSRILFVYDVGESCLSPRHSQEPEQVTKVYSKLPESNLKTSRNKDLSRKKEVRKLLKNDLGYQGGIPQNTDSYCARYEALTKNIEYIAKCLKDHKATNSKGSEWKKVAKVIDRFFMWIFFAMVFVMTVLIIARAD
Chain of rat α9α10 nAChRs (Q9JLB5 25-447 limits assumed): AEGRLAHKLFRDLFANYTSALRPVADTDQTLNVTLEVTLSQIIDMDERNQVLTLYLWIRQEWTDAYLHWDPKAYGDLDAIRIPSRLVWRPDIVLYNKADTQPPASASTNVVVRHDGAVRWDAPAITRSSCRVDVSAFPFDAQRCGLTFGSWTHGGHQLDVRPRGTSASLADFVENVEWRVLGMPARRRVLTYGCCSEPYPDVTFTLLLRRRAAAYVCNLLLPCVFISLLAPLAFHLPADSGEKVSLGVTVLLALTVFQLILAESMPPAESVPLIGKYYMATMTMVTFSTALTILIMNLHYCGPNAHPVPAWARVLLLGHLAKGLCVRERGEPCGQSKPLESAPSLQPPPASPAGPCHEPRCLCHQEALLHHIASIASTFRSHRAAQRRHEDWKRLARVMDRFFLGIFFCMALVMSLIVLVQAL

Chain of rat α7 nAChRs (Q05941 23-502 limits assumed): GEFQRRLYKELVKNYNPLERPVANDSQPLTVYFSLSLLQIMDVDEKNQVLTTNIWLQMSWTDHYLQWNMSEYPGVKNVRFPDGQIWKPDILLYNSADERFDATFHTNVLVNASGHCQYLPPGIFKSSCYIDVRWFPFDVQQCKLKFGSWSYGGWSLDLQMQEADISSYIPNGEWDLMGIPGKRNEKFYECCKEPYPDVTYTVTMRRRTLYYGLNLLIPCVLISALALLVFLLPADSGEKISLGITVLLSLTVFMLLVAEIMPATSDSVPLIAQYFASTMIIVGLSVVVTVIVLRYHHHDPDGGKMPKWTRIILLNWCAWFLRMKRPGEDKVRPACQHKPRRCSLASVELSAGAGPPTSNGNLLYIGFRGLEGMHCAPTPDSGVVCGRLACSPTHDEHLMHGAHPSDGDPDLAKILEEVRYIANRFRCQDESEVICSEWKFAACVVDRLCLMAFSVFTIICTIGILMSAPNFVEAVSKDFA
Chain of human α7 nAChRs (P36544 23-502 limits assumed): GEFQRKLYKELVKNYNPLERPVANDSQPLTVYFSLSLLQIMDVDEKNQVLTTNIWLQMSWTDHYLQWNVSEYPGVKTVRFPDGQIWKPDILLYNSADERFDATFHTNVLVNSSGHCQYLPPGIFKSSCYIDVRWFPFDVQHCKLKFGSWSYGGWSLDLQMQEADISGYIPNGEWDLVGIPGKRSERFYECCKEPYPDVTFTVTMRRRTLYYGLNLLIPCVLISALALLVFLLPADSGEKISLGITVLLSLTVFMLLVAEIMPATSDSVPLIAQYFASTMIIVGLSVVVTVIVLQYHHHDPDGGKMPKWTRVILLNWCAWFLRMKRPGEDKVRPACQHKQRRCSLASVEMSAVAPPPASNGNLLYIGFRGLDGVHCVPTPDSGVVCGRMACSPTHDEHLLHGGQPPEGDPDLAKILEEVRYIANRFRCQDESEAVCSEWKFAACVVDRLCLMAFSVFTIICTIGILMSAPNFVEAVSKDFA
Chain of human α9α10 nAChRs (Q9UGM1 26-479 limits assumed): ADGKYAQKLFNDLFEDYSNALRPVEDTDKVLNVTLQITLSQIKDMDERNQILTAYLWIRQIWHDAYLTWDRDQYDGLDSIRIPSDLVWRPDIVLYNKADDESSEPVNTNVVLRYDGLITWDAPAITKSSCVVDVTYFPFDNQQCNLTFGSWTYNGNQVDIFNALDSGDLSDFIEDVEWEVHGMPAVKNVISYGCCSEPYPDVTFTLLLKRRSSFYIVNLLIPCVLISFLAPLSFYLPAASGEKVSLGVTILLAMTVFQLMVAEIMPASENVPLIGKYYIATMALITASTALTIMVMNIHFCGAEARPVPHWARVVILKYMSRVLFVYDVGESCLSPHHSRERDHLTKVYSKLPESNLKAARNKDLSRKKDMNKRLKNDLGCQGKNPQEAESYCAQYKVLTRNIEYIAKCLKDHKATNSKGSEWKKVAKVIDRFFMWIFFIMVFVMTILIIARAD
Chain of human α9α10 nAChRs (Q9GZZ6 25-450 limits assumed): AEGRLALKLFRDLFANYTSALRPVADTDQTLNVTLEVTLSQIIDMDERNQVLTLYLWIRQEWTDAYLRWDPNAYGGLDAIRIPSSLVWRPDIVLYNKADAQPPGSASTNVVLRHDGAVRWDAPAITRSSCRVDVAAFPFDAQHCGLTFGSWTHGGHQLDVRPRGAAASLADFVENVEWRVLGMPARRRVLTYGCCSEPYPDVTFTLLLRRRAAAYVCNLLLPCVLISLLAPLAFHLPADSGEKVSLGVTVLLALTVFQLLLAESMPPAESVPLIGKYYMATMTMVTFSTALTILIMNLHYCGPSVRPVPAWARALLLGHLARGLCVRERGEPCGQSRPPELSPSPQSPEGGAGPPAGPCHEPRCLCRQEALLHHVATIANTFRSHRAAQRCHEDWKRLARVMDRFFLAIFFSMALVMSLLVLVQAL

N=C(N)NCCC[C@H](NC(=O)[C@@H]1CSSC[C@@H]2NC(=O)[C@@H](NC(=O)CN)CSSC[C@H](NC(=O)[C@H](CCCNC(=N)N)NC(=O)[C@@H]3CCCN3C(=O)[C@H](CC(=O)O)NC(=O)[C@H](CO)NC2=O)C(=O)N[C@@H](CCCNC(=N)N)C(=O)N[C@@H](Cc2ccc(O)cc2)C(=O)N[C@@H](CCCNC(=N)N)C(=O)N1)C(=O)O [RgIA]
Hill Slope [1]: 0.7 (0.4–1.0) | IC50 [1]: 4.61 µM | Hill Slope [2]: 0.5 (0.4–0.6) | Hill Slope [3]: 0.8 (0.4–1.1) | IC50 [3]: 5.31 µM | inhibition of ACh-evoked currents [3]: 60% | Hill Slope [4]: 0.8 (0.7–0.9)
